In brackets after ≈: the same amount, converted by molar mass.
Columns and labels:
[1] = molecular target: T1, proteasome subunit β5 (beta5) (Homo sapiens, UniProt P28074); test: Proteasome active-site ELISA (ProCISE), beta5, MOLT-4 lysate; format: biochemical; settings: MOLT4 lysate, human, 1 h continuous treatment, 25° C.
T1 construct: Lysate from the human acute lymphoblastic leukemia cell line, MOLT-4; endogenous in cells; host or cells: MOLT-4
In short: (§1)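 MOLT-4 cell lysate treated 1 h at 25 °C with compound; probe-bound subunits denatured, pulled down on streptavidin beads and detected with subunit-specific antibodies plus HRP chemiluminescence.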

[2] = molecular target: T2, immunoproteasome subunit LMP7 (Homo sapiens, UniProt P28062); test: Proteasome active-site ELISA (ProCISE), LMP7, MOLT-4 lysate; format: biochemical; settings: MOLT4 lysate, 1 h continuous treatment, 25° C.
T2 construct: Lysate from the human acute lymphoblastic leukemia cell line, MOLT-4; endogenous in cells; host or cells: MOLT-4
In short: as §1

[3] = molecular target: human 20S immunoproteasome (i20S) (Homo sapiens, UniProt P28062); test: 20S proteasome assay, chymotrypsin-like activity (succinyl-Leu-Leu-Val-Tyr-AMC), i20S; format: biochemical; settings: LLVY substrate, 1 h continuous
Description: (§2) Assay buffer consisted of TE buffer [20 mmol/L Tris (pH 8.0), 0.5 mmol/L EDTA] with (20S) or without (cell lysate) 0.03% SDS. Reactions were initiated by enzyme or lysate addition and monitored for AMC product formation at 27jC with a plate-based spectofluorometer (Tecan).

[4] = molecular target: human constitutive 20S proteasome (c20S) (Homo sapiens, UniProt P28074); test: 20S proteasome assay, chymotrypsin-like activity (succinyl-Leu-Leu-Val-Tyr-AMC), c20S; format: biochemical; settings: LLVY substrate, 1 h continuous
Description: as §2

Solubility pH 7 = settings: pH 7, aqueous buffer
physchem = settings: pH 7, aqueous buffer

Compound	IC50 [1] [nM]	IC50 [2] [nM]	IC50 [3] [nM]	IC50 [4] [nM]	solubility (Solubility pH 7) [µg/mL]	solubility (physchem) [µg/mL]
COc1ccc(C[C@H](NC(=O)[C@H](C)NC(=O)CN2CCOCC2)C(=O)N[C@@H](Cc2ccccc2)C(=O)[C@@]2(C)CO2)cc1OC [Compound C-1160, (S)-3-(3,4-dimethoxyphenyl)-N-((S)-1-((R)-2-methyloxiran-2-yl)-1-oxo-3-phenylpropan-2-yl)-2-((S)-2-(2-morpholinoacetamido)propanamido)propanamide]	660	157	246	909	1530 (≈ 2500 µM)	
C[C@H](NC(=O)CN1CCOCC1)C(=O)N[C@@H](Cc1ccc(N(C)C)cc1)C(=O)N[C@@H](Cc1ccccc1)C(=O)[C@@]1(C)CO1 [Compound C-1161, (S)-3-(4-(dimethylamino)phenyl)-N-((S)-1-((R)-2-methyloxiran-2-yl)-1-oxo-3-phenylpropan-2-yl)-2-((S)-2-(2-morpholinoacetamido)propanamido)propanamide]	409	51.2	146	807	2110 (≈ 3560 µM)	
COc1ccc(C[C@H](NC(=O)[C@H](C)NC(=O)CN2CCOCC2)C(=O)N[C@@H](Cc2ccc(O)cc2)C(=O)[C@@]2(C)CO2)cc1 [Compound C-1162, (S)-N-((S)-3-(4-hydroxyphenyl)-1-((R)-2-methyloxiran-2-yl)-1-oxopropan-2-yl)-3-(4-methoxyphenyl)-2-((S)-2-(2-morpholinoacetamido)propanamido)propanamide]	595	43.4	27.9	1610	1270 (≈ 2130 µM)	
COc1ccc(C[C@H](NC(=O)[C@@H](NC(=O)CN2CCOCC2)[C@H](C)O)C(=O)N[C@@H](Cc2ccccc2)C(=O)[C@@]2(C)CO2)cc1 [Compound C-1174]	150	22.9	23	161	1780 (≈ 2920 µM)	
COc1ccc(C[C@H](NC(=O)[C@H](C)NC(=O)CN2CC3CC(C2)O3)C(=O)N[C@@H](CC2CCCC2)C(=O)[C@@]2(C)CO2)cc1 [Compound C-1229, (2S)-2-((2S)-2-(2-(6-oxa-3-azabicyclo[3.1.1]heptan-3-yl)acetamido)propanamido)-N-((S)-3-cyclopentyl-1-((R)-2-methyloxiran-2-yl)-1-oxopropan-2-yl)-3-(4-methoxyphenyl)propanamide]						3620 (≈ 6200 µM)

— patent USRE47302E1 (ONYX THERAPEUTICS INC., priority 2013, dated 2019)
